{"source": "patent US20050084509A1", "about": "“Use of citric acid and low concentrations of alpha-hydroxy acids for superficial skin treatment” (priority 2003, published 2005)", "key": {"[1]": {"system": "skin", "assay": "low concentration citric acid peel self-administered in the home", "format": "in vivo, human"}, "[2]": {"system": "signs of photoaging", "assay": "citric acid versus glycolic acid at equal concentration and same pH", "format": "in vivo, human"}, "[3]": {"system": "ichthyosis", "details": "in vivo; cited from earlier work"}, "[4]": {"system": "photodamaged skin", "assay": "citric acid peels on photodamaged skin (office peel study)", "details": "50 percent citric acid solution"}, "[5]": {"details": "two months after last treatment"}}, "data": [{"smiles": "O=C(O)CC(O)(CC(=O)O)C(=O)O", "note": "[citric acid]", "values": [{"measurement": "subjective assessment of fine lines, wrinkles, enlarged pores, and brown spots", "setting": "[1]; 10 percent citric acid solution, three treatments at two-week intervals, two months after third treatment", "result": "statistically significant improvement"}, {"measurement": "skin tolerance without neutralization", "setting": "[1]; ten percent citric acid", "result": "may be left on most people's skin without neutralization"}, {"measurement": "reducing the signs of photoaging versus glycolic acid", "setting": "[2]; equal concentration of glycolic acid at the same pH", "result": "more effective"}, {"measurement": "side effects versus glycolic acid", "setting": "[2]; glycolic acid of the same concentration", "result": "side effects are less"}, {"measurement": "efficacy in treating ichthyosis", "setting": "[3]", "result": "highly effective"}, {"measurement": "fine lines and wrinkles, photographs evaluated by blinded observers", "setting": "[4]; 2-5 min, neutralized, peels at one month intervals, evaluated two months after last treatment", "result": "statistically significant improvement"}, {"measurement": "redness immediately following a peel", "setting": "[4]; immediately after peel", "result": "increase in redness"}, {"measurement": "fine lines, wrinkles by Primos topographic image analysis", "setting": "[4]; [5]", "result": "improvement in fine lines, wrinkles"}, {"measurement": "pore size by Primos topographic image analysis", "setting": "[4]; [5]", "result": "reduction in pore size"}, {"measurement": "redness by cross-polarized photography", "setting": "[4]; [5]", "result": "no dramatic change in redness"}]}]}
